Data: ChEMBL document CHEMBL5038651, “Design, Synthesis, and Biological Evaluation of 2-((4-Bisarylmethyl-piperazin-1-yl)methyl)benzonitrile Derivatives as HCV Entry Inhibitors” (J Med Chem, 2022)
Values belong to the compound of their own block, whether it stands above or below them. Activity calls are given as the source filed them. The rule behind the calls is not given here.

Legend:
[1] = Cytotoxicity against human Huh7.5 cells assessed as reduction in cell viability incubated for 96 hrs by MTT assay; format: toxicity, cell-based, Huh-7.5; settings: Huh7.5 cells
Hepatitis C virus [2] = test: Antiviral activity against HCV infected in human Huh7.5 cells incubated for 72 hrs by in-cell western assay; format: functional, organism-based, Hepacivirus hominis; settings: Huh7.5, 72 h
[3] = Selectivity index, ratio of CC50 for cytotoxicity against human Huh7.5.1 cells to EC50 for antiviral activity against HCV infected in human Huh7.5.1 cells; format: toxicity, cell-based; settings: read-out: Ratio CC50/EC50
[4] = molecular target: Histamine H1 receptor (Homo sapiens) (UniProt P35367); test: Antagonist activity against H1 receptor (unknown origin) expressed in HEK cells at 1 uM relative to control; format: functional, cell-based
Histamine H1 receptor (Homo sapiens), sequence (P35367 whole entry): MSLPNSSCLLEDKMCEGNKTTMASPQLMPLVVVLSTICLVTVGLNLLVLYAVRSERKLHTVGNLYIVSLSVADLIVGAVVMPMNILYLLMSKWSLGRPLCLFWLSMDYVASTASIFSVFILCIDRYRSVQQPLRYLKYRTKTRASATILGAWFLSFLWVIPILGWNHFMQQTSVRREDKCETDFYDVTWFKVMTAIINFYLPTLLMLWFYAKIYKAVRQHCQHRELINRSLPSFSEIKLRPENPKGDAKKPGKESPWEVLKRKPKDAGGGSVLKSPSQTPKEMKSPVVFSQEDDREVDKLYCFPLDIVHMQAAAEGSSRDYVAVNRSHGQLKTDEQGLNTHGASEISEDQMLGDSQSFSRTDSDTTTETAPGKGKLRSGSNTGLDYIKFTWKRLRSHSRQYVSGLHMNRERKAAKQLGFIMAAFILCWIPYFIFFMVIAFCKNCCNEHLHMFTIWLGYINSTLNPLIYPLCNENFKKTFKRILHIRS

Hepatitis C virus [5] = test: Antiviral activity against HCV infected in human Huh7.5 cells assessed as reduction in viral RNA level preincubated for 2 hrs prior to viral infection and measured after 72 hrs by RT-qPCR analysis; format: functional, organism-based; settings: Hepacivirus hominis, time 74.0 hrs
Hepatitis C virus [6] = test: Antiviral activity against HCV infected in human Huh7.5 cells assessed as reduction in viral RNA level measured after 72 hrs by RT-qPCR analysis; format: functional, organism-based; settings: Hepacivirus hominis
Hepatitis C virus [7] = test: Antiviral activity against HCV infected in human Huh7.5 cells assessed as reduction in HCV core protein expression measured after 72 hrs by Western blotting analysis; format: functional, organism-based; settings: Hepacivirus hominis
Hepatitis C virus [8] = test: Antiviral activity against HCV infected in human Huh7.5 cells assessed as reduction in HCV core protein expression preincubated for 2 hrs followed by viral infection and measured after 72 hrs by Western blotting analysis; format: functional, organism-based; settings: Hepacivirus hominis, time 74.0 hrs
Hepatitis C virus [9] = test: Antiviral activity against HCV infected in human Huh7.5 cells assessed as reduction in HCV core protein expression pre-infected with virus for 2 hrs followed by compound addition and measured after 72 hrs by Western blotting analysis; format: functional, organism-based; settings: Hepacivirus hominis
Hepatitis C virus [10] = test: Antiviral activity against HCV infected in human Huh7.5 cells carrying HCV subgenomic replicons assessed as inhibition of viral replication at 1.4 uM; format: functional, organism-based; settings: Hepacivirus hominis
[11] = Selectivity index, ratio of CC50 for cytotoxicity against human Huh7.5 cells infected with HCVcc to EC50 for antiviral activity against HCVcc infected in human Huh7.5 cells; format: toxicity, cell-based; settings: read-out: Ratio CC50/EC50
Hepatitis C virus [12] = test: Antiviral activity against HCV infected in human Huh7.5 cells assessed as reduction in HCV core protein expression at 6.4 nM incubated for 72 hrs by in-cell western assay; format: functional, organism-based; settings: Hepacivirus hominis
Hepatitis C virus [13] = test: Antiviral activity against HCV infected in human Huh7.5 cells assessed as reduction in viral RNA level pre-infected with virus for 2 hrs followed by compound addition and measured after 72 hrs by RT-qPCR analysis; format: functional, organism-based; settings: Hepacivirus hominis
[14] = MRT in Sprague-Dawley rat at 15 mg/kg, po administered as single dose measured upto 24 hrs by LC-MS/MS analysis; format: ADME, organism-based; settings: in vivo
[15] = AUC (0 to infinity) in Sprague-Dawley rat at 15 mg/kg, po administered as single dose measured upto 24 hrs by LC-MS/MS analysis; format: ADME, organism-based; design: route oral, dose 15 mg/kg, time <=24; settings: in vivo
Hepatitis C virus [16] = test: Antiviral activity against HCVcc infected in human Huh7.5 cells assessed as inhibition of viral replication; format: functional, organism-based, Hepacivirus hominis
Hepatitis C virus [17] = test: Antiviral activity against HCV infected in human Huh7.5 cells carrying HCV subgenomic replicons assessed as inhibition of viral replication; format: functional, organism-based, Hepacivirus hominis
[18] = Cytotoxicity against human Huh7.5 cells infected with HCVcc assessed as reduction in cell viability incubated for 96 hrs by MTT assay; format: toxicity, cell-based, Huh-7.5
[19] = Cytotoxicity against human Huh7.5 cells carrying HCV subgenomic replicons assessed as reduction in cell viability incubated for 96 hrs by MTT assay; format: toxicity, cell-based, Huh-7.5
[20] = Half life in Sprague-Dawley rat at 15 mg/kg, po administered as single dose measured upto 24 hrs by LC-MS/MS analysis; format: ADME, organism-based; settings: in vivo
[21] = Tmax in Sprague-Dawley rat at 15 mg/kg, po administered as single dose measured upto 24 hrs by LC-MS/MS analysis; format: ADME, organism-based; settings: in vivo
[22] = Cmax in Sprague-Dawley rat at 15 mg/kg, po administered as single dose measured upto 24 hrs by LC-MS/MS analysis; format: ADME, organism-based; design: route oral, dose 15 mg/kg, time <=24; settings: in vivo
[23] = Plasma concentration in Sprague-Dawley rat at 15 mg/kg, po administered as single dose measured up to 24 hrs by LC-MS/MS analysis; format: ADME, organism-based
Hepacivirus hominis = test: Binding affinity to HCV E1 protein at 12.5 to 200 uM by SPR analysis; settings: dose 12.5-200 µM

EC50 (Hepatitis C virus [2]): 0.055 µM
SMILES: CN1CCCN(c2ccc(C#N)c(CN3CCN([C@@H](c4ccccc4)c4ccc(Cl)cc4)CC3)c2)CC1
CC50 at 96 h [1]: > 20 µM
selectivity ratio [3]: > 364

EC50 (Hepatitis C virus [2]): 0.003 µM
SMILES: CN(C)CCN(C)c1ccc(C#N)c(CN2CCN(C(c3ccc(Cl)cc3)c3ccc(Cl)cc3)CC2)c1
CC50 at 96 h [1]: 3.33 µM

EC50 (Hepatitis C virus [2]): 3.56 µM
SMILES: CN(C)CCN(C)c1ccc(C#N)c(CN2CCN(Cc3ccc(F)cc3)CC2)c1
CC50 at 96 h [1]: 52.7 µM
selectivity ratio [3]: 14

EC50 (Hepatitis C virus [2]): 0.083 µM
SMILES: CN1CCCN(c2ccc(C(F)(F)F)c(CN3CCN(C(c4ccccc4)c4ccc(Cl)cc4)CC3)c2)CC1 (configuration not stated)
CC50 at 96 h [1]: 1.29 µM
selectivity ratio [3]: 15

EC50 (Hepatitis C virus [2]): > 4 µM
SMILES: CN1CCCN(c2ccc(C#N)c(CN3CCN(C(=O)c4ccc(F)cc4)CC3)c2)CC1
CC50 at 96 h [1]: 13.8 µM

EC50 (Hepatitis C virus [2]): 0.11 µM
SMILES: CN1CCCN(c2ccc(C#N)c(CN3CCN(c4ccc(Cl)cc4)CC3)c2)CC1
CC50 at 96 h [1]: 9.59 µM
selectivity ratio [3]: 87

EC50 (Hepatitis C virus [2]): 0.004 µM
Activity [4]: inactive
SMILES: CN(C)CCN(C)c1ccc(C#N)c(CN2CCN(C(c3ccccc3)c3ccc(Cl)cc3)CC2)c1 (configuration not stated)
CC50 at 96 h [1]: 5.66 µM
selectivity ratio [3]: 1410
Activity (Hepatitis C virus [5]): inactive
Activity (Hepatitis C virus [6]): inactive
Activity (Hepatitis C virus [7]): Active
Activity (Hepatitis C virus [8]): inactive
Activity (Hepatitis C virus [9]): Active
Activity (Hepatitis C virus [10]): inactive
selectivity ratio [11]: 649
Activity (Hepatitis C virus [12]): Active
Activity (Hepatitis C virus [13]): Active

MRT [14]: 9.43 h
EC50 (Hepatitis C virus [2]): 0.005 µM
AUC(0-inf) [15]: 639 ng·h/mL
EC50 (Hepatitis C virus [16]): 0.00289 µM
EC50 (Hepatitis C virus [17]): > 1.6 µM
half-life [20]: 5.66 h
Tmax [21]: 2.69 h
Cmax [22]: 78 ng/mL
concentration at 24 h [23]: 4.98 ng/mL
Activity (Hepacivirus hominis): Active
Activity [4]: inactive
SMILES: CN1CCCN(c2ccc(C#N)c(CN3CCN(C(c4ccc(F)cc4)c4ccc(F)cc4)CC3)c2)CC1
CC50 at 96 h [1]: 6.24 µM
selectivity ratio [3]: 1130
CC50 at 96 h [18]: 3.31 µM
CC50 at 96 h [19]: 3.95 µM
Activity (Hepatitis C virus [5]): inactive
Activity (Hepatitis C virus [6]): inactive
Activity (Hepatitis C virus [7]): Active
Activity (Hepatitis C virus [8]): inactive
Activity (Hepatitis C virus [9]): Active
Activity (Hepatitis C virus [10]): inactive
selectivity ratio [11]: 1140
Activity (Hepatitis C virus [12]): Active
Activity (Hepatitis C virus [13]): Active

EC50 (Hepatitis C virus [2]): 0.007 µM
SMILES: CN1CCCN(c2ccc(C(F)(F)F)c(CN3CCN(C(c4ccc(F)cc4)c4ccc(F)cc4)CC3)c2)CC1
CC50 at 96 h [1]: 1.45 µM
selectivity ratio [3]: 206

EC50 (Hepatitis C virus [2]): 0.22 µM
SMILES: N#Cc1ccc(NCCCn2ccnc2)cc1CN1CCN(C(c2ccccc2)c2ccc(Cl)cc2)CC1 (configuration not stated)
CC50 at 96 h [1]: 5.38 µM
selectivity ratio [3]: 24

EC50 (Hepatitis C virus [2]): 0.271 µM
SMILES: CN(C)CCN(C)c1ccc(C(F)(F)F)c(CN2CCN(C(c3ccccc3)c3ccc(Cl)cc3)CC2)c1 (configuration not stated)
CC50 at 96 h [1]: 6.96 µM
selectivity ratio [3]: 26

EC50 (Hepatitis C virus [2]): 1.03 µM
SMILES: CC(c1ccccc1)N1CCN(Cc2cc(N(C)CCN(C)C)ccc2C#N)CC1 (configuration not stated)
CC50 at 96 h [1]: 44.1 µM
selectivity ratio [3]: 43

EC50 (Hepatitis C virus [2]): 0.003 µM
SMILES: CN1CCCN(c2ccc(C(F)(F)F)c(CN3CCN(c4ccc(Cl)cc4)CC3)c2)CC1
CC50 at 96 h [1]: 2.56 µM
selectivity ratio [3]: 855

EC50 (Hepatitis C virus [2]): 21.1 µM
SMILES: CN1CCCN(c2ccc(C#N)c(CN3CCN(Cc4ccccc4)CC3)c2)CC1
CC50 at 96 h [1]: > 100 µM

EC50 (Hepatitis C virus [2]): 0.01 µM
SMILES: CN(C)CCN(C)c1ccc(C#N)c(CN2CCN([C@H](c3ccccc3)c3ccc(Cl)cc3)CC2)c1
CC50 at 96 h [1]: 8.23 µM
selectivity ratio [3]: 823

EC50 (Hepatitis C virus [2]): 12.2 µM
SMILES: CN(C)CCN(C)c1ccc(C#N)c(CN2CCN(C(=O)c3ccc(Cl)cc3)CC2)c1
CC50 at 96 h [1]: 10.1 µM

EC50 (Hepatitis C virus [2]): > 4 µM
SMILES: CN1CCCN(c2ccc(C#N)c(CN3CCN(C(=O)c4ccc(Cl)cc4)CC3)c2)CC1
CC50 at 96 h [1]: 9.7 µM
